Measurements published in US10292991B2, “Small molecule therapeutic compounds that reduce the incidence of intracerebral hemorrhage and brain microhemorrhages” (St. Michaels Hospital, priority 2016, dated 2019).
Where two headings read alike, the source gives them in different places.

Tests used:
[1] = test system: Cdh5 - exon2 morpholino-induced hemorrhage in zebrafish; experiment: Cdh5 (VE-cadherin) morpholino-induced hemorrhage in zebrafish, rescue by drugs; type: in vivo, zebrafish (Danio rerio); conditions: result in words, no EC50
Description: (§1) Danieau buffer (58 mM NaCl, 0.7 mM KCl, 0.4 mM MgSO4, 0.6 mM Ca(NO3)2, 5.0 mM HEPES, pH 7.6) was used to dilute the MO solutions to 0.2 mM final concentration. Individual wells were placed on a 1.0% agarose plate, in which the embryos were positioned. Afterwards, the MO solution was injected through the cell yolk into embryos of 1 to 4 cell-stage. The injected quantities varied from 0.5 to 15 ng.
Panels A & B: Stable EC junctions are maintained by a Cdc42-dependent and VE-cadherin-mediated cell-cell adhesion. VE cadherins are found on the surfaces of EC cell-cell junctions. VE-cadherins are associated with β- and α-catenins at their cytoplasmic domains, which connect them to the actin-based cytoskeleton (blue circles). Cdc42 belongs to the Rho-family of small guanosine triphosphatases (GTPases), which are the main regulators of VE-cadherin-based cell-cell adhesion. The functions of hmgcrb, βPix, and pak2a in regulating junctional stability in zebrafish are shown. HNGCR mediated GGPP biosynthesis regulates Cdc42 prenylation. βPix is a GEF that increases CDC42 affinity for GTP. Pak2 is an effector of Cdc42, which regulates actin filament organization.
Suppression of VE-cadherin induces hemorrhage.

[2] = test system: Hmgcrb - splice morpholino-induced hemorrhage in zebrafish; experiment: Hmgcrb morpholino-induced hemorrhage in zebrafish, rescue by drugs; type: in vivo, zebrafish (Danio rerio)
Description: as §1
(§2) The first three morpholino pairs were good for the efficacy study. Efficacy assays were performed using Artemether (ARM, Sigma) and artemesunate (ART, GMP). […] Treating these morphants with the drugs rescued the ICH phenotype.

[3] = test system: bbh mutant zebrafish (mutation in βPix), spontaneous ICH; experiment: bbh (bubblehead) mutant genetic model of brain hemorrhage; type: in vivo, zebrafish (Danio rerio); conditions: for EC50: read-out: EC50 to rescue brain hemorrhage, bbh Mutant Model
Excerpt: A specific zebrafish line with a gene mutation called bubblehead (bbh) was used. This line has spontaneous ICH. Bubblehead phenotype is caused by a mutation in βPix. Adult homozygous zebrafish were viable and fertile. […] More than 85% of zebrafish larvae display an ICH phenotype.

[4] = test system: brain hemorrhage induced by 1 μM atorvastatin in zebrafish; experiment: Atorvastatin-induced brain hemorrhage (ICH) model in zebrafish, rescue by drugs; conditions: for Efficacy on atorvastatin Hemorrhage: ATV model induced by 1 μmol/L atorvastatin, inhibition of hemorrhage; for Result in the ATV zebrafish model: derivatives acquired from Sequoia Research Products
Description: Zebrafish were set up the night before the experiment day. In the morning of the experimental day, we put breeders together for mating and fertilization. 6 hours post-fertilization (hpf), statins was added into a 96-well plate holding 100 μl water with 7 to 8 fish eggs in each well, which was optimized through a serial pilot experiments. Statins were dissolved in DMSO and diluted with 0.5% of DMSO water into a working solution. 100 μl water containing 0.5% of DMSO was the medium for all wells in the final assessment.
For screening NIH compound libraries, 5 μM of each of the drugs from the library was added at 24 hpf into wells containing fish eggs treated with 1 μM ATV since 6 hpf. Hemorrhage positive control wells were treated with ATV but not treated with any drugs. Negative controls were not treated with any chemicals (fish with 0.5% of DMSO water). Geranylgeranyl pyrophosphate (GGPP, 4 mg/L) was used as positive rescue control.
Brain hemorrhage was assessed 72 hpf (66 hours after addition of statins) using stereomicroscopy by two observers. Percentage of brain hemorrhage was used as final readout. Compounds showing more than 70% of rescue of the brain hemorrhages in the initial test were re-tested to generate a final list of hits from the library.
All subsequent EC50 assays of positive compounds were performed with protocols established and optimized during the screening.

[5] = test system: Pak2a - exon8 morpholino-induced hemorrhage in zebrafish; experiment: Pak2a morpholino-induced hemorrhage in zebrafish, rescue by drugs; type: in vivo, zebrafish (Danio rerio); conditions: result in words
Description: as §1
Another MO was designed to block the splice-donor sites after exon 8 in pak2a. Pak2a is the gene mutated in the rhdmi149 zebrafish mutant that develops ICH/BMH.
Efficacy assays were performed using Artemether (ARM, Sigma) and artemesunate (ART, GMP).

[6] = test system: β-Pix MO-induced hemorrhage in zebrafish; experiment: βPix morpholino-induced hemorrhage in zebrafish, rescue by drugs; type: in vivo, zebrafish (Danio rerio); conditions: for Efficacy on β-Pix MO Hemorrhage: inhibition of β-Pix MO-induced hemorrhage
Description: (§3) Morpholino oligonucleotides (MOs) were custom-synthesized by Gene Tools (Carvalis, Oreg.); their sequences are shown in Table 1.
as §1
(§4) bbhm292 zebrafish mutant has a hypomorphic mutation in βPix, resulting in ICH/BMH and hydrocephalus. The MO is βPixexon6-MO which blocks splicing of exon 6 and results in premature protein termination. […] Higher doses of βPixexon6-MO (up to 8 ng) result in a lack of blood circulation, and therefore no ICH/BMH was detected. Injection of 8 ng results in complete missplicing of βPix and therefore a null phenotype, whereas lower doses retain some normally spliced βPix. The βPixexon6-MO sequence is 5′-[…]-3′ [SEQ ID NO: 1]. 3Pixexon6-MO was injected into the embryos at the 1-2 cell stage, and compounds were added 12 hpf.
as §2

[7] = test system: zebrafish larvae; experiment: Toxicity assay in zebrafish larvae (heart beat, blood flow, cardiac edema); type: in vivo, zebrafish (Danio rerio)
Description: The embryos were collected and distributed into a 96-well plate in 0.5% DMSO, similar to efficacy assays. […] Heart beat and blood flow were ranked from 3 (normal heart beat or blood flow) to 0 (no heart beat or blood flow). Cardiac edema was ranked from 0 (normal heart without edema) to −3 (severe cardiac edema). […] The ratio of TC50/EC50 was calculated in each case.
Heart beat and blood flow were ranked from 3 (normal heart beat or blood flow) to 0 (no heart beat or blood flow). Cardiac edema was ranked from 0 (normal heart without edema) to −3 (severe cardiac edema). […] Data is expressed as mean±SEM from 3 experiments.

[8] = test system: zebrafish larvae; experiment: Morpholino injection to induce hemorrhage in zebrafish larvae; type: in vivo; conditions: for Hemorrhage: at optimum injected amount, 3 dpf larvae, n = 150-250 per condition
Description: as §3, §1, §4
Another MO was designed to block the splice-donor sites after exon 8 in pak2a. Pak2a is the gene mutated in the rhdmi149 zebrafish mutant that develops ICH/BMH. The pak2a-MO sequence is 5′-[…]-3′ (SEQ ID NO: 2). Eight pg of pak2a-MO was injected per embryo, resulting in […] of embryos with ICH/BMH with low mortality (FIGS. 12 and 14).
Next, optimum amount of each morpholino was determined. The goal was to induce an acceptable percentage of hemorrhage (ideally between 40-80%), without having toxicity from morpholino injection.

[9] = n = 15-20 larvae per condition, 1-3 times per compound
[10] = drug from Sequoia Research (UK)
[11] = drug from Sigma, 3 dpf larvae, drug added 24 hpf
[12] = Danio rerio, read-out: EC50 (in nmol/L) on atorfvastatin model (μmol/L)
[13] = Danio rerio, read-out: EC50 to rescue brain hemorrhage, Statin Model

For Artesunate, the “Rescue of hemorrhage induced by Cdh5 - exon2 morpholino” value [1] was “rescue was observed”, the “ICH/BMH after MO-mediated inhibition of hmgcrb” value ([2]; result in words) was “prevented” and the EC50 [3, 9] was 140 nM. For the same compound, the “Rescue of hemorrhage / ICH phenotype in bbh mutants” value ([3]; result in words) was “rescues the ICH phenotype”, the “Efficacy on atorvastatin Hemorrhage” value [4] was “+++++ (One + sign represents 20% inhibition on 1 μmol/L ATV or β-Pix MO-induced hemorrhage.)” and the EC50 ([4]; read-out: EC50 (in nmol/L) on atorfvastatin model (μmol/L), Table 3, 1 μmol/L atorvastatin, 3 to 4 experiments) was 211 nmol/L. The “ICH/BMH after treatment with pak2a-MO” value [5] was “dose-dependently reduced”, the “ICH in βPixexon6-MO injected embryos” value ([6]; 5 μmol/L, compounds added 12 hpf) was “prevented ICH” and the “Efficacy on β-Pix MO Hemorrhage” value [6] was “+++++ (One + sign represents 20% inhibition on 1 μmol/L ATV or β-Pix MO-induced hemorrhage.)”.

C[C@H]1[C@H](OC(=O)CCC(=O)O)O[C@@H]2O[C@@]3(C)CC[C@H]4[C@H](C)CC[C@@H]1[C@@]24OO3 [Artesunate] was tested, and the “Rescue of hemorrhage induced by Cdh5 - exon2 morpholino” value [1] was “Rescue effect”, the “TC50 (Blood flow)” value ([7]; GMP-Artesunate) was 794.4 nM and the “TC50 (Edema)” value ([7]; GMP-Artesunate) was 3196 nM. The “TC50 (Heart beat)” value ([7]; GMP-Artesunate) was 2525 nM, the “TC50 (Blood flow)” value [7, 10] was 1036 nM and the “TC50 (Edema)” value [7, 10] was 937.8 nM. For the same compound, the “TC50 (Heart beat)” value [7, 10] was 9539 nM, the “TC50 (Blood flow)” value [7, 11] was 741.5 nM and the “TC50 (Edema)” value [7, 11] was 5367 nM. For the same compound, the “TC50 (Heart beat)” value [7, 11] was 8884 nM, the EC50 ([2]; Table 6) was 167 ± 9.3 nM and the EC50 [3, 9] was 127 nM. The EC50 ([4]; read-out: EC50 to rescue brain hemorrhage, Statin Model, Table 4, n = 15-20 larvae per condition, three times per compound) was 182 nmol/L and the EC50 ([6]; Table 6, read-out: EC50 to rescue hemorrhage induced by βPix - exon6 morpholino) was 95.6 ± 27.9 nM.

In the case of C[C@@H]1CC[C@H]2[C@@H](C)C(=O)O[C@@H]3O[C@]4(C)CC[C@@H]1[C@]32OO4 [Artemisinin], the “TC50 (Blood flow)” value [7, 10] is reported as 5340 nM, the “TC50 (Edema)” value [7, 10] is reported as 6347 nM and the “TC50/EC50 ratio (Blood flow)” value [7, 10] is reported as “(20.4)”. For the same compound, the “TC50/EC50 ratio (Edema)” value [7, 10] was 24.2), the “TC50/EC50 ratio (Heart beat)” value [7, 10] was 4.6e+007) and the “TC50/EC50 ratio (Blood flow)” value ([7]; drug from Sigma) was “(13)”. The “TC50/EC50 ratio (Edema)” value ([7]; drug from Sigma) was “(419)”, the “TC50/EC50 ratio (Heart beat)” value ([7]; drug from Sigma) was “(104.5)” and the “TC50 (Blood flow)” value [7, 11] was 1058 nM. The “TC50 (Edema)” value [7, 11] was 34134 nM, the “TC50 (Heart beat)” value [7, 11] was 8501 nM and the EC50 ([3]; Danio rerio) was 177 nM. For the same compound, the “Efficacy on atorvastatin Hemorrhage” value [4] was “+++++ (One + sign represents 20% inhibition on 1 μmol/L ATV or β-Pix MO-induced hemorrhage.)”, the EC50 [4, 12] was 95 nmol/L and the EC50 [4, 13] was 81.3 nmol/L. The “Result in the ATV zebrafish model” value [4] was “tested positive” and the “Efficacy on β-Pix MO Hemorrhage” value [6] was “+++++ (One + sign represents 20% inhibition on 1 μmol/L ATV or β-Pix MO-induced hemorrhage.)”.

In the case of Benidipine, the “Efficacy on atorvastatin Hemorrhage” value [4] is reported as “++++ (One + sign represents 20% inhibition on 1 μmol/L ATV or β-Pix MO-induced hemorrhage.)” and the “Efficacy on β-Pix MO Hemorrhage” value [6] is reported as “++++ (One + sign represents 20% inhibition on 1 μmol/L ATV or β-Pix MO-induced hemorrhage.)”.

With “GGTasel: morpholino 5′-CACGCGGTGTGTGGACTCACGGTCA-3′ (all phosphorodiamidate morpholino (PMO))” the Hemorrhage [8] was 11.4% (Faint).

Work on “Hmgcrb - splice: morpholino 5′-AACTGCATTCATAAACTCACCCAGT-3′ (all phosphorodiamidate morpholino (PMO))” yielded a Hemorrhage [8] of 67.9%.

With CC(C)[C@]12O[C@H]1[C@@H]1O[C@]13[C@]1(O[C@H]1C[C@@]1(C)C4=C(CC[C@]31C)C(=O)OC4)[C@H]2O [Tripolide] the “Efficacy on atorvastatin Hemorrhage” value [4] was “++++ (One + sign represents 20% inhibition on 1 μmol/L ATV or β-Pix MO-induced hemorrhage.)” and the “Efficacy on β-Pix MO Hemorrhage” value [6] was “No effect”.

For “Rap1b - exon3: morpholino 5′-AAATGATGCAGAACTTGCCTTTCTG-3′ (all phosphorodiamidate morpholino (PMO))”, the Hemorrhage [8] was 30.8% (Faint).

In the case of C[C@H]1[C@@H](O)O[C@@H]2O[C@]3(C)CC[C@H]4[C@H](C)CC[C@@H]1[C@@]24OO3 [Dihydroartemisinin], the “TC50 (Blood flow)” value [7, 10] is reported as 979.5 nM, the “TC50 (Edema)” value [7, 10] is reported as 1021 nM and the “TC50 (Blood flow)” value [7, 11] is reported as 890 nM. For the same compound, the “TC50 (Edema)” value [7, 11] was 748.5 nM, the EC50 ([3]; Danio rerio) was 107 nM and the “Efficacy on atorvastatin Hemorrhage” value [4] was “+++++ (One + sign represents 20% inhibition on 1 μmol/L ATV or β-Pix MO-induced hemorrhage.)”. For the same compound, the EC50 [4, 12] was 67 nmol/L, the EC50 [4, 13] was 80.8 nmol/L and the “Result in the ATV zebrafish model” value [4] was “tested positive”. The “Efficacy on β-Pix MO Hemorrhage” value [6] was “+++++ (One + sign represents 20% inhibition on 1 μmol/L ATV or β-Pix MO-induced hemorrhage.)”.

C#C[C@]1(O)CC[C@H]2[C@@H]3CCc4cc(O)ccc4[C@H]3CC[C@@]21C [Ethynylestradiol] was tested, and the “Efficacy on atorvastatin Hemorrhage” value [4] was “+++ (One + sign represents 20% inhibition on 1 μmol/L ATV or β-Pix MO-induced hemorrhage.)”.

In the case of “Cdh5 - exon2: morpholino 5′-TACAAGACCGTCTACCTTTCCAATC-3′ (antisense; all phosphorodiamidate morpholino (PMO))”, the “Cardiac Edema” value ([8]; at optimum injected amount (1.0 ng)) is reported as 35.0% (Cardiac Edema) and the Hemorrhage [8] is reported as 39.4%.

CCOC(=O)C1=C(C)NC(C)=C(C(=O)OCC)C1c1ccccc1/C=C/C(=O)OC(C)(C)C [Lacidipine] was tested, and the “Efficacy on atorvastatin Hemorrhage” value [4] was “++++ (One + sign represents 20% inhibition on 1 μmol/L ATV or β-Pix MO-induced hemorrhage.)”.
